Source: PMC9884808, “Pharmacokinetics, tissue distribution, and antitumor activity of a novel compound, NY-2, in non-small cell lung cancer” (Frontiers in Pharmacology, 2023)

Key:
[1] = Stability of plasma samples (LC-MS/MS method validation); type: in vitro ADME, rat; details: room temperature 12 h, auto-sampler 4°C 3 days, -20°C 14 days, three freeze-thaw cycles
Source text: We used the online ADME prediction tool Swiss AMDE (http://www.swissadme.ch/index.php) (SwissADME, 2017) to analyze the physicochemical descriptors and ADME parameters of NY-2 and ZLDI-8, to predict their pharmacokinetic properties, drug-like nature, and medicinal chemistry. […] Male Sprague-Dawley rats weighing 240 ± 20 g were purchased from Liaoning Changsheng Biotechnology Co., Ltd. (Liaoning, China, animal license #SCXK-2015-0001). Rats were used for the tissue distribution and pharmacokinetics experiments because of their larger body fluid volume. The rats were fasted for 12 h before the experiment but allowed to drink water freely. […] Plasma samples were subjected to a protein precipitation method for the quantitative analysis of ZLDI-8 and NY-2 by LC-MS/MS (API 3200MD, AB Sciex, United States). […] The linear equation and correlation coefficient (r) of the regression curve were calculated from these concentrations and the corresponding […] data. The specificity, lower limit of quantification (LLOQ), linear range, precision, accuracy, matrix effects, extraction recovery, stability of analytes during the whole process of storage, as well as treatment in a biological matrix and solution were determined to verify the reliability of the compound concentrations in vivo. […]

[2] = Tissue distribution in rats; type: in vivo, SD rats; details: for blood-brain barrier penetration: rat brain tissue concentration very low; for order of concentrations in tissues: 5 min after administration
Protocol: After fasting for 12 h, 32 SD rats were randomly divided into eight groups of four rats each. Four groups were injected with ZLDI-8 via tail vein (6 mg/kg) at 5 min, 12, 24, and 48 h. The other four groups were injected with NY-2 (6 mg/kg) at the same time points. The heart, liver, spleen, lung, kidney, brain, muscle, and intestines were collected after cervical dislocation at the specified time points and tissue samples were removed. Samples were rinsed with normal saline at 0°C to remove residual blood and debris, blotted dry with filter paper, weighed, and stored at ˗20°C until used.

HCT116 = experiment: MTT cell viability assay; type: cell-based, human; details: Homo sapiens, HCT-116, HCT116 colorectal cancer cells
Protocol: The human colorectal cancer cell lines, HCT116 and LoVo, the breast cancer cell line, T47D, the hepatocellular carcinoma cell line, HepG2, the normal human liver cell line, HL7702, human umbilical vein endothelial cells (HUVECs), and the non-small cell lung cancer cell lines, A549, H1993, HCC827, H460, were purchased from the American Type Culture Collection (Manassas, VA, United States). Cell lines were cultured in the recommended RPMI-1640 medium (AE24464298, Hyclone, United States) and DMEM medium (AE29422278, Hyclone, United States) supplemented with 10% fetal bovine serum (FBS; JC63470, FB15015, Clark, United States) with 1% penicillin-streptomycin. Cells were maintained in an incubator at 37°C with 5% CO2 (HF90,Sanyo, Japan) and passaged every 48–72 h, after detaching with 0.25% trypsin (Sigma, United States). The compounds ZLDI-8 and NY-1 to -15 were synthesized in the laboratory of Dr. Huaiwei Ding in Shenyang Pharmaceutical University, and verified by high-performance liquid chromatography (purity >95%) for use in experiments (Supplementary Figure S1). Paclitaxel was purchased from MedChemExpress (HY-B0015, 99.97% purity, United States).
Cell viability was measured by the MTT assay. HCT116, HL7702, A549, H1993, HCC827, and H460 cells were dispensed into 96-well plates at a density of 1 × 10^5 cells/mL. After 24–48 h incubation, cells were treated with the compounds at different concentrations for the indicated periods. An assay kit (WLA073, Wanlei Co., Liaoning, China), was used according to the manufacturer’s instructions to measure LDH activity, The absorbance at 450 nm was measured with a microplate reader (Elx-800, Bio-Rad, China).
The preliminary antitumor activity of the series of ZLDI-8 derivatives, NY-1 to -15 was screened by the MTT cell viability assay. […] The antitumor activity of NY-2 on HCT116 cells was concentration- and time-dependent, and slightly better than that of the original compound, ZLDI-8.

Row | SMILES | stability of plasma samples [1] | blood-brain barrier penetration [2] | concentration in the brain ([2]; rat, tail vein 6 mg/kg) | tissue with the highest concentration ([2]; rat, tail vein 6 mg/kg) | order of concentrations in tissues ([2]; rat, tail vein 6 mg/kg) | IC50 (HCT116)
1 | Cc1c(C=C2C(=O)NC(=S)NC2=O)c2ccccc2n1CCOc1ccc(F)cc1 [NY-2] | stable under a variety of analytical conditions | do not readily penetrate the blood-brain barrier | almost zero | highest in the lung | lung > liver > spleen > heart > kidney > intestines > brain > muscle | 5.35 µM
2 | Cc1ccc(OCCn2c(C)c(C=C3C(=O)NC(=S)NC3=O)c3ccccc32)c(C)c1 [ZLDI-8, reference compound] | stable under a variety of analytical conditions | do not readily penetrate the blood-brain barrier | almost zero |  | lung > liver > spleen > heart > kidney > intestines > brain > muscle | 7.72 µM
